The values below come from patent US20210299101A1, “SYSTEMS, METHODS, AND KITS FOR DIAGNOSTICS AND TREATMENT OF VIRAL RESPIRATORY INFECTION” (priority 2020, published 2021).

SMILES strings stand for the structures.

For assay [1], the system named is SARS-CoV-2. Description: Example 5: double-blinded placebo controlled prophylaxis study in male health care workers, SARS-CoV-2 test at day 28. Type of assay: in vivo, human. Particulars: 0.25 mg/day oral.
Assay [2] concerns SARS-CoV-2. Description: Example 3: double-blinded placebo controlled prophylaxis study in male health care workers, SARS-CoV-2 test at day 28. It counts as in vivo, human. As to conditions: 750 mg/day oral, of 18 male health care workers negative at baseline (placebo 3 of 10).
For assay [3], the system named is SARS-CoV-2. Description: Example 2: double-blinded placebo controlled prophylaxis study in health care workers, SARS-CoV-2 test at day 28. Particulars: 10 mg/Kg/day oral, of 50 male and female health care workers negative at baseline (placebo 9 of 47).
Experimental: Example 2: A double-blinded placebo controlled study was conducted on 97 male and female health care workers working at two hospital emergency room departments.
At baseline, all subjects were tested negative for SARS-CoV-2 infection. […] The reminder 47 subjects were given a placebo oral pill. At day 28 all subjects were tested for SARS-CoV-2 infection.
For assay [4], the system named is SARS-CoV-2. It counts as in vivo, human. As to conditions: 3 admitted patients (standard care 4.0). How it is done:
Example 19: A controlled study was conducted on 90 male patients with average age of 51 years old. […] The treatment arm was prescribed nilutamide (300 mg) orally once daily at the start of the trial, the control arm received standard care.
The patients BCRSS score was 1.3.

Assay [5] has as its system SARS-CoV-2. Description: Example 21: double-blinded placebo controlled study in hospitalized male SARS-CoV-2 patients, survival at day 14. Type of assay: in vivo, human. As to conditions: following 14 days of treatment; 80 mg qd; 15 hospitalized male patients, score 4-6 on 8 point COVID-19 ordinal scale (control group 55%). As to the method: The primary outcome was survival at day 14.
15 subjects were assigned to HC-1119 treatment 80 mg qd. The other 15 subjects received standard treatment+HC-1119 placebo.

The subject of assay [6] is SARS-CoV-2. Description: Example 22: double-blinded placebo controlled study in hospitalized female SARS-CoV-2 patients, survival. It counts as in vivo, human. Particulars: following 14 days of treatment; 80 mg qd; 15 hospitalized female patients, score 4-6 on 8 point COVID-19 ordinal scale (control group 67%). As to the method:
The patients were taking birth control and agreed not to engage in unprotected sex for at least 90 days post last dosing. None of the women were lactating.
15 subjects were assigned to HC-1119 treatment 80 mg qd. The other 13 subjects received standard treatment+HC-1119 placebo.

Assay [7] relates to SARS-CoV-2. Description: Example 23: open label study in hospitalized male and female SARS-CoV-2 patients, survival. Particulars: average of 28 days of treatment; 80 mg qd; 31 hospitalized male and female patients, score 6 on 8 point COVID-19 ordinal scale (subjects not in study 3%). Type of assay: in vivo, human.
Assay [8] has as its system SARS-CoV-2. Description: Example 24: double-blinded placebo controlled study in COVID-19 outpatients, rate of hospitalization at day 14. It counts as in vivo, human. As to conditions: following 14 days of treatment; 80 mg qd; 28 male and female outpatients, score 1-2 on 8 point COVID-19 ordinal scale (control group 20%). How it is done:
The primary outcome was the rate of hospitalization at day 14.
28 subjects were assigned to HC-1119 treatment 80 mg qd. The other 28 subjects received standard treatment+HC-1119 placebo. Following 14 days of treatment, 1% of the subjects in the HC-1119 were hospitalized compared to 20% of the subjects in the control group were hospitalzied.

For assay [9], the system named is SARS-CoV-2. The experiment in a line: Example 4: double-blinded placebo controlled study in hospitalized male SARS-CoV-2 patients, survival. As to conditions: following 15 days of treatment; 160 mg qd; 15 hospitalized male patients (control group 7%). Type of assay: in vivo, human. How it is done: 15 subjects were assigned to enzalutamide treatment 160 mg qd. The other 15 subjects received standard treatment. Following 15 days of treatment, 20% of the subjects in the enzalutamide survived while 7% of the control group survived.

The test system of a further assay is furin. Particulars: human hepatoma cell lines (Chen et al. 2008); cited from earlier work.
Assay [10] relates to SARS-CoV-2. It counts as in vivo. Particulars: 1 admitted patient (standard care average 3.6).
For assay [11], the system named is SARS-CoV-2. The experiment in a line: Example 7: double-blinded placebo controlled study in hospitalized male SARS-CoV-2 patients, survival. As to conditions: following 15 days of treatment; injection 300 mg; 60 hospitalized male patients (control group 64%). Type of assay: in vivo, human. How it is done: 60 subjects were given an injection of cyproterone acetate (300 mg). The other 53 subjects received standard treatment. Following 15 days of treatment, 84% of the subjects in the cyproterone acetate survived while 64% of the control group survived.

The test system of assay [12] is fetal pulmonary surfactant production. Particulars: rabbits, males and females; cited from earlier work.

In the case of `C[C@]12C=CC(=O)N[C@@H]1CC[C@@H]1[C@@H]2CC[C@]2(C)[C@@H](C(=O)Nc3cc(C(F)(F)F)ccc3C(F)(F)F)CC[C@@H]12` [dutasteride], the “subjects tested positive for SARS-CoV-2 (percent)” value with SARS-CoV-2 [1] (68 male health care workers (placebo 17%)) amounted to 4.4%. Besides, in the assay on SARS-CoV-2 [1] (of 68 male health care workers negative at baseline (placebo 9 of 53)), the “subjects tested positive for SARS-CoV-2 (number)” value is 3 subject. As for `CC(C)C(=O)Nc1ccc([N+](=O)[O-])c(C(F)(F)F)c1` [flutamide], the “subjects tested positive for SARS-CoV-2” value with SARS-CoV-2 [2] is recorded as 1 subject. With `C=C(C)[C@@H]1CCC(C)=C[C@H]1c1c(O)cc(CCCCC)cc1O` [cannabidiol], in the assay with SARS-CoV-2 [3], the “subjects tested positive for SARS-CoV-2” value turned out to be 2 subjects. For `CC1(C)NC(=O)N(c2ccc([N+](=O)[O-])c(C(F)(F)F)c2)C1=O` [nilutamide], the “BCRSS score of admitted patients” value with SARS-CoV-2 [4] worked out at 1.3. For the compound `[2H]C([2H])([2H])NC(=O)c1ccc(N2C(=S)N(c3ccc(C#N)c(C(F)(F)F)c3)C(=O)C2(C)C)cc1F` [HC-1119], the subjects survived in the assay on SARS-CoV-2 [5] is on record as 96.3%; in the assay with SARS-CoV-2 [6] it was 91.8%; with SARS-CoV-2 [7] it was 72%. The subjects hospitalized in the assay on SARS-CoV-2 [8] was determined as 1%. In turn, `CNC(=O)c1ccc(N2C(=S)N(c3ccc(C#N)c(C(F)(F)F)c3)C(=O)C2(C)C)cc1F` [enzalutamide] showed a subjects survived in the assay on SARS-CoV-2 [9] of 20%.

For the compound `N[C@@H](Cc1cc(I)c(Oc2ccc(O)c(I)c2)c(I)c1)C(=O)O` [thyroid hormone T3], the furin expression entry with furin is listed as “up-regulated”.

Turning to `CC(O)c1cc(C(=O)N[C@@H](C)Cn2ccc(-c3ccc(C#N)c(Cl)c3)n2)[nH]n1` (some centres unmarked) [darolutamide], the “BCRSS score of the admitted patient” value in the assay on SARS-CoV-2 [10] was 2. Turning to `CC(=O)O[C@]1(C(C)=O)CC[C@H]2[C@@H]3C=C(Cl)C4=CC(=O)[C@@H]5C[C@@H]5[C@]4(C)[C@H]3CC[C@@]21C` [cyproterone acetate], the subjects survived with SARS-CoV-2 [11] worked out at 84%. On to `C[C@]12CCC(=O)C[C@@H]1CC[C@@H]1[C@@H]2CC[C@]2(C)[C@@H](O)CC[C@@H]12` [dihydrotestosterone], for which the “effect on fetal pulmonary surfactant production” value in assay [12] is “inhibit fetal pulmonary surfactant production”.
